Test results as given in article PMC5824344 (ACS Chemical Biology, 2017).

Columns and labels:
[1] = system: DENV2 strain 16681 in primary human MDMΦ; design: method as in PMID 23070155; conditions: MDMΦ cells, same system; read-out: IC50 for DENV inhibition; cited from earlier work
[2] = target: T1, Rat intestinal cellobiase (Rattus norvegicus, UniProt Q02401); test: Inhibition of rat intestinal cellobiase (β-glucosidase; natural substrate, glucose release); type: biochemical; conditions: read-out: inhibition of intestinal cellobiase at the maximum tested concentration
T1 sequence (Q02401 868-1928): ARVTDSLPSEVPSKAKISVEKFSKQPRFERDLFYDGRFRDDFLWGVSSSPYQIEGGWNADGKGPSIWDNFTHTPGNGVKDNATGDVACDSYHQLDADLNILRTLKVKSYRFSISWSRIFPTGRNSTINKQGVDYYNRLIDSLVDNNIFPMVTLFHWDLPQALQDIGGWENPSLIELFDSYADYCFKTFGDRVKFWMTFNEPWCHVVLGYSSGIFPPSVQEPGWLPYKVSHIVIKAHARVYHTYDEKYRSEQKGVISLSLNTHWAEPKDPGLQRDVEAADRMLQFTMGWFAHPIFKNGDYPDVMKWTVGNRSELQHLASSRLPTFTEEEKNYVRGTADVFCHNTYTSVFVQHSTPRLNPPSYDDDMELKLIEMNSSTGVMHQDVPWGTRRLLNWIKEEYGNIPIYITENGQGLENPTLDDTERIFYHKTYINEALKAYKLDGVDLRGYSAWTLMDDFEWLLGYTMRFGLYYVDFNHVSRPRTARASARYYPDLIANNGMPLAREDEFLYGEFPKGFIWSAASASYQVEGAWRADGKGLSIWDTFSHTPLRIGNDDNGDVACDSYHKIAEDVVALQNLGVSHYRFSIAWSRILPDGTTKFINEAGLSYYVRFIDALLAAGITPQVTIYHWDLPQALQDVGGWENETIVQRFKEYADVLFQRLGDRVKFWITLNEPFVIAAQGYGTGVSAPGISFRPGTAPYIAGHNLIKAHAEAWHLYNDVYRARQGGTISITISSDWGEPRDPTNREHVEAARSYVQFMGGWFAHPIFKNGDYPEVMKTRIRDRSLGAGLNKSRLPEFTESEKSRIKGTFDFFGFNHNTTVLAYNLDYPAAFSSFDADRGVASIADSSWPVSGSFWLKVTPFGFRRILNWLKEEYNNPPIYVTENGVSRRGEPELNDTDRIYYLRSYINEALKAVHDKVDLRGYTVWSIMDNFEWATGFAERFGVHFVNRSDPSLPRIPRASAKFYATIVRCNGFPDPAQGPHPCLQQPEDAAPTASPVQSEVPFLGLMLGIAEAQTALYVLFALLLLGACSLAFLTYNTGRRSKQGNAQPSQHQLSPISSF

[3] = system: GluI and GluII in Raji (B lymphocyte) cells; test: Free oligosaccharide (FOS) assay in Raji cells; type: cell-based, human; conditions: 48 h, 50 µm
Description: 5 Cell and Virus Culture and Assays
5.1 Culture of Cell Lines
The human hepatoma cell line Huh7.5 (Apath, LLC) was cultured in Dulbecco’s modiﬁed Eagle medium (DMEM) with Glutamax (Gibco) supplemented with 100 µg mL−1 strepto-mycin (Sigma), 100 U mL−1 penicillin (Sigma), 100 µm MEM non-essential amino acids (Gibco) and 10% (volume/volume, v/v) heat-inactivated (56 ◦C, 30 min) fetal calf serum (FCS, Seralab). The human monocytic cell line HL60 (ATCC), human T lymphocyte cell line Jurkat (ATCC), and human B lymphocyte cell line Raji (ATCC) were each maintained in RPMI 1640 media with Glutamax (Gibco) supplemented with 100 µg mL−1 streptomycin, 100 U mL−1 penicillin and 10% (v/v) FCS. […]
Cell viability was measured using the CellTiter 96 R© AQueous One Solution Cell Prolifera-tion MTA (3-(4,5-dimethylthiazol-2-yl)-5-(3-carboxymethoxyphenyl)-2-(4-sulfophenyl)-2H - […]
After a further one to two hour incubation, the absorbance at 490 nm was measured on a Molecular Devices SpectraMax M5 microplate reader. […]
Absorbances were averaged across replicates, and corrected for background by subtracting the value for media-only wells. Each drug treatment was then evaluated as a percentage of untreated cells. […]
FOS analysis was carried out as described previously. […] Before purifying the FOS, each sample was analyzed for protein content using the modiﬁed Bradford assay. […]

| SMILES | IC50 [1] | inhibition at 50 µM [2] | glucosylated free oligosaccharides (FOS) observed after treatment [3] | glucosylated free oligosaccharides (FOS) observed after treatment ([3]; listed as ToP-DNJ 4) |
| --- | --- | --- | --- | --- |
| CCCCN1CC(O)C(O)C(O)C1CO [Compound 2, N-butyl-D-1-deoxynojirimycin, reference compound] | 6 µM | – | – | – |
| Cc1c(C)c2c(c(C)c1OCCCCCN1CC(O)C(O)C(O)C1CO)CCC(C)(CCCC(C)CCCC(C)CCCC(C)C)O2 (stereo not shown) [Compound 4, 5′-tocopheroxypentyl-DNJ] | – | < 50% | nor Raji | no glucosylated FOS were detected |
